Experimental data as given in ChEMBL document CHEMBL1201862, “PubChem BioAssay data set” (2004).
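Method: 48-hour compound exposure of cells in 96-well plates, five concentrations, linear interpolation of endpoints. At the GI50, growth is halved.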 Active and inactive are the calls of the source. No stated cut-off is given here; in the data, active = GI50 up to about 1.1 µM and inactive = higher.

Assays:
Experiment in all cases: NCI-60 cell line screen, 48 h
[1] = system: SNB-19
[2] = system: NCI-H23
[3] = system: PC-3
[4] = system: LOX IMVI
[5] = system: NCI-H522
[6] = system: SK-MEL-28
[7] = system: SK-OV-3
[8] = system: HCT-116
[9] = system: T47D
[10] = system: SK-MEL-5
[11] = system: OVCAR-5
[12] = system: DU-145
[13] = system: EKVX
[14] = system: 786-0
[15] = system: SF-268
[16] = system: M14
[17] = system: NCI/ADR-RES
[18] = system: BT-549
[19] = system: HOP-92
[20] = system: CCRF-CEM

In the case of `C[n+]1c2ccccc2c(C(=O)Nc2ccc(S(=O)(=O)N=C(N)N)cc2)c2ccccc21`, the GI50 [1] is reported as > 100 µM (inactive), the GI50 [2] is reported as > 100 µM (inactive) and the GI50 [3] is reported as > 100 µM (inactive). For the same compound, the GI50 [4] was 75.3 µM (inactive), the GI50 [5] was > 100 µM (inactive) and the GI50 [6] was > 100 µM (inactive). For the same compound, the GI50 [7] was > 100 µM (inactive), the GI50 [8] was > 100 µM (inactive) and the GI50 [9] was > 100 µM (inactive). For the same compound, the GI50 [10] was > 100 µM (inactive), the GI50 [11] was > 100 µM (inactive) and the GI50 [12] was > 100 µM (inactive). The GI50 [13] was > 100 µM (inactive), the GI50 [14] was > 100 µM (inactive) and the GI50 [15] was > 100 µM (inactive). The GI50 [16] was > 100 µM (inactive) and the GI50 [17] was > 100 µM (inactive).
In the case of `O=C(CSC1=NCCN1)c1ccccc1`, the GI50 [1] is reported as > 100 µM (inactive), the GI50 [18] is reported as > 100 µM (inactive) and the GI50 [2] is reported as > 100 µM (inactive). The GI50 [3] was > 100 µM (inactive), the GI50 [4] was > 100 µM (inactive) and the GI50 [5] was > 100 µM (inactive). For the same compound, the GI50 [6] was > 100 µM (inactive), the GI50 [7] was > 100 µM (inactive) and the GI50 [8] was > 100 µM (inactive). The GI50 [9] was > 100 µM (inactive), the GI50 [10] was > 100 µM (inactive) and the GI50 [11] was > 100 µM (inactive). The GI50 [12] was > 100 µM (inactive), the GI50 [13] was > 100 µM (inactive) and the GI50 [14] was > 100 µM (inactive). For the same compound, the GI50 [15] was > 100 µM (inactive), the GI50 [16] was > 100 µM (inactive) and the GI50 [19] was > 100 µM (inactive). The GI50 [17] was > 100 µM (inactive).
For `Nc1ccc(Oc2ccc(C3(c4ccc(Oc5ccc(N)cc5)cc4)C4CC5C6CC7CC5C3C(C7)C6C4)cc2)cc1`, the GI50 [1] was 37.4 µM (inactive), the GI50 [18] was > 100 µM (inactive) and the GI50 [2] was 26.3 µM (inactive). The GI50 [3] was > 45.4 µM (inactive), the GI50 [4] was 6.01 µM (inactive) and the GI50 [5] was > 81.7 µM (inactive). The GI50 [6] was > 100 µM (inactive), the GI50 [8] was 18.3 µM (inactive) and the GI50 [10] was 52.6 µM (inactive). The GI50 [11] was > 100 µM (inactive), the GI50 [12] was 9.04 µM (inactive) and the GI50 [13] was 27 µM (inactive). The GI50 [14] was 9.66 µM (inactive), the GI50 [15] was > 53.2 µM (inactive) and the GI50 [16] was 3.87 µM (inactive). For the same compound, the GI50 [20] was 2.62 µM (inactive), the GI50 [19] was 0.668 µM (active) and the GI50 [17] was > 100 µM (inactive).
`O=C(Nc1nc(C23CC4CC(CC(C4)C2)C3)cs1)c1cc2ccc(O)cc2oc1=O` was tested, and the GI50 [1] was 18.4 µM (inactive), the GI50 [18] was > 10 µM (inactive) and the GI50 [2] was 11.7 µM (inactive). For the same compound, the GI50 [3] was 13.5 µM (inactive), the GI50 [4] was 8.07 µM (inactive) and the GI50 [5] was 10.2 µM (inactive). The GI50 [6] was 15.1 µM (inactive), the GI50 [8] was 10.1 µM (inactive) and the GI50 [10] was 13.7 µM (inactive). The GI50 [11] was 21 µM (inactive), the GI50 [12] was 18.3 µM (inactive) and the GI50 [13] was 13.2 µM (inactive). For the same compound, the GI50 [14] was 11.6 µM (inactive), the GI50 [15] was 16.9 µM (inactive) and the GI50 [20] was 14.7 µM (inactive). The GI50 [19] was 3.7 µM (inactive) and the GI50 [17] was 11.1 µM (inactive).
In the case of `CCOC(=O)C1(C(=O)OCC)COS(=O)OC1`, the GI50 [1] is reported as > 100 µM (inactive), the GI50 [2] is reported as 49.7 µM (inactive) and the GI50 [3] is reported as > 100 µM (inactive). For the same compound, the GI50 [4] was 13.2 µM (inactive), the GI50 [5] was 0.604 µM (active) and the GI50 [6] was 35.1 µM (inactive). For the same compound, the GI50 [7] was > 100 µM (inactive), the GI50 [8] was 17.4 µM (inactive) and the GI50 [9] was 19.9 µM (inactive). The GI50 [10] was 35.6 µM (inactive), the GI50 [12] was > 100 µM (inactive) and the GI50 [15] was > 10 µM (inactive). For the same compound, the GI50 [16] was > 100 µM (inactive), the GI50 [20] was 10.6 µM (inactive) and the GI50 [19] was 12.6 µM (inactive). For the same compound, the GI50 [17] was 40 µM (inactive).
For `O=c1[nH]c2ccccc2c(=O)n1/N=C\c1ccccc1O`, the GI50 [1] was > 100 µM (inactive), the GI50 [18] was > 100 µM (inactive) and the GI50 [2] was > 100 µM (inactive). For the same compound, the GI50 [3] was > 100 µM (inactive), the GI50 [4] was > 100 µM (inactive) and the GI50 [6] was > 100 µM (inactive). For the same compound, the GI50 [7] was > 100 µM (inactive), the GI50 [8] was > 100 µM (inactive) and the GI50 [9] was > 100 µM (inactive). The GI50 [10] was 88.3 µM (inactive), the GI50 [11] was > 100 µM (inactive) and the GI50 [12] was > 100 µM (inactive). For the same compound, the GI50 [13] was 22.8 µM (inactive), the GI50 [14] was > 100 µM (inactive) and the GI50 [15] was 58.6 µM (inactive). The GI50 [16] was > 100 µM (inactive), the GI50 [20] was > 100 µM (inactive) and the GI50 [19] was 67 µM (inactive).
In the case of `COc1ccc2[nH]c3c(C)c4cc[n+](C)cc4c(C)c3c2c1`, the GI50 [1] is reported as 0.273 µM (active), the GI50 [18] is reported as 1.87 µM (inactive) and the GI50 [2] is reported as 0.649 µM (active). For the same compound, the GI50 [3] was 3.54 µM (inactive), the GI50 [4] was 10.2 µM (inactive) and the GI50 [5] was 0.562 µM (active). The GI50 [6] was 2.18 µM (inactive), the GI50 [7] was 6.78 µM (inactive) and the GI50 [8] was 2 µM (inactive). For the same compound, the GI50 [10] was 1.76 µM (inactive), the GI50 [11] was 9.51 µM (inactive) and the GI50 [13] was 1.16 µM (inactive). For the same compound, the GI50 [15] was 0.197 µM (active), the GI50 [20] was 1.72 µM (inactive) and the GI50 [19] was 3.21 µM (inactive). For the same compound, the GI50 [17] was 22 µM (inactive).
With `CN(C)CCNC(=O)c1cc([N+](=O)[O-])cc2c1Oc1ccccc1O2` the GI50 [18] was 35.5 µM (inactive), the GI50 [2] was 51.8 µM (inactive) and the GI50 [3] was 42 µM (inactive). For the same compound, the GI50 [4] was 12.9 µM (inactive), the GI50 [5] was 21.7 µM (inactive) and the GI50 [6] was 35.2 µM (inactive). The GI50 [8] was 7.33 µM (inactive), the GI50 [9] was 18.5 µM (inactive) and the GI50 [10] was 23 µM (inactive). The GI50 [11] was 40.9 µM (inactive), the GI50 [12] was 37.8 µM (inactive) and the GI50 [13] was 56.1 µM (inactive). The GI50 [14] was 15.6 µM (inactive), the GI50 [15] was 21.6 µM (inactive) and the GI50 [16] was 31.5 µM (inactive). For the same compound, the GI50 [20] was 17.8 µM (inactive) and the GI50 [17] was 23.9 µM (inactive).
